From PMC3933301 (Journal of medicinal chemistry, 2013)
≈ marks a conversion by molar mass, not a printed value.

Experiments:
[1] = system: Mtb clinical strain NHN382 (isoniazide-resistant); type: cell-based, Mycobacterium tuberculosis
[2] = system: Mtb clinical strain TN587 (isoniazide-resistant); type: cell-based, Mycobacterium tuberculosis

| Structure (SMILES) | MIC, Mtb strain NHN382 [1] | MIC, Mtb strain TN587 [2] |
| --- | --- | --- |
| NNC(=O)c1ccncc1 [INH, isoniazid, reference compound] | 0.25 µg/mL (≈ 1.82 µM) | 0.25 µg/mL (≈ 1.82 µM) |
| CCCCOC(=O)Nc1cc2nc(C3CCCCC3)[nH]c2cc1N(C)C [Compound 5f, 5-Butyloxycarbonylamino-2-cyclohexyl-6-N,N-dimethylamino-1H-benzo[d]imidazole] | – | 0.13 µg/mL (≈ 0.363 µM) |
